Several values for one entry are separate records, joined by “and”; a condition that tells them apart may be missing. Equal values may be shown once. Read-outs that look alike come from different tables or passages of the source.
Experiments:
P. falciparum Dd2-2D4 = assay: P. falciparum asexual blood stage (ABS) growth assay, SYBR Green, 72 h, wild-type parasites; assay type: cell-based, Plasmodium falciparum; conditions: for parasite growth, replicate wells (Fig 1b): Dd2-2D4
PfcProRS = target: T1, PfcProRS (Plasmodium falciparum, UniProt Q8I5R7); assay type: binding; conditions: for dose-response signal (normalized), SI Fig 8: single replicates
T1 construct: made in house; host or cells: E. coli SoluBL-21

[1] = test system: HFGR-I P. falciparum (elevated proline homeostasis and PfcProRS^L482H); assay: P. falciparum ABS growth assay, SYBR Green, 72 h, HFGR-I parasites; assay type: cell-based, Plasmodium falciparum; conditions: HFGR-I
Outline: (§1)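 EC50 came from SYBR Green 1 fluorescence measured 72 h after dosing in triplicate dose-response. Dihydroartemisinin at 10 μM set full kill and untreated wells set full growth. Cultures of the Dd2 lines were seeded at 1% hematocrit and 1% parasitemia in Albumax-supplemented RPMI.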

[2] = test system: halofuginone-induced P. falciparum (elevated proline homeostasis); assay: P. falciparum ABS growth assay, SYBR Green, 72 h, halofuginone-induced parasites; assay type: cell-based, Plasmodium falciparum; conditions: Halofuginone-Induced
Outline: as §1

T1 sequence (Q8I5R7 249-746): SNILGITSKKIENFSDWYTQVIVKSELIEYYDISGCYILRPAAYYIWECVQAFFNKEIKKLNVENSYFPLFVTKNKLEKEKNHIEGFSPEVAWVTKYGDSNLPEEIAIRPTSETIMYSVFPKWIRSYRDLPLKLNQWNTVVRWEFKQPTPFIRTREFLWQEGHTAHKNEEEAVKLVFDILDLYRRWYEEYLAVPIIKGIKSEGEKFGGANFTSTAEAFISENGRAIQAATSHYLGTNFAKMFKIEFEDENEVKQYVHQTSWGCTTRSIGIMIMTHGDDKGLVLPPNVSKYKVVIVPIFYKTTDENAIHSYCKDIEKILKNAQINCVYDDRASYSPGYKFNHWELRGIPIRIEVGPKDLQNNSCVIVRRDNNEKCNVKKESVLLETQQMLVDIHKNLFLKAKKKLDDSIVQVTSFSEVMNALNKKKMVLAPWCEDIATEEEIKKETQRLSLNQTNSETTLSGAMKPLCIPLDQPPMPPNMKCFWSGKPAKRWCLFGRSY

O=C(NC1Cc2ccccc2C1)c1nccnc1NC(=O)C1CCCCC1 [compound 2, reference compound]
parasite growth, replicate wells (Fig 1b) (P. falciparum Dd2-2D4; Log[inhibitor] (M) -5.000): 1.00E+00 (2×) and 0.00E+00
parasite growth, replicate wells (Fig 1b) (P. falciparum Dd2-2D4; Log[inhibitor] (M) -5.301): 0.00E+00 (2×) and -2.00E+00
parasite growth, replicate wells (Fig 1b) (P. falciparum Dd2-2D4; Log[inhibitor] (M) -5.602): 1.00E+00 and -1.00E+00 and 2.00E+00
parasite growth, replicate wells (Fig 1b) (P. falciparum Dd2-2D4; Log[inhibitor] (M) -5.903): 1.70E+01 and 1.20E+01 and 1.60E+01
parasite growth, replicate wells (Fig 1b) (P. falciparum Dd2-2D4; Log[inhibitor] (M) -6.204): 4.80E+01 (2×) and 4.40E+01
parasite growth, replicate wells (Fig 1b) (P. falciparum Dd2-2D4; Log[inhibitor] (M) -6.505): 8.30E+01 (2×) and 8.20E+01
parasite growth, replicate wells (Fig 1b) (P. falciparum Dd2-2D4; Log[inhibitor] (M) -6.806): 1.04E+02 and 1.00E+02 and 1.01E+02
parasite growth, replicate wells (Fig 1b) (P. falciparum Dd2-2D4; Log[inhibitor] (M) -7.107): 8.30E+01 and 8.10E+01 and 8.20E+01
parasite growth, replicate wells (Fig 1b) (P. falciparum Dd2-2D4; Log[inhibitor] (M) -7.408): 8.20E+01 and 7.90E+01 and 8.10E+01
parasite growth, replicate wells (Fig 1b) (P. falciparum Dd2-2D4; Log[inhibitor] (M) -7.709): 9.90E+01 and 8.20E+01 and 1.00E+02
parasite growth, replicate wells (Fig 1b) (P. falciparum Dd2-2D4; Log[inhibitor] (M) -8.010): 9.50E+01 and 1.05E+02 and 1.00E+02
parasite growth, replicate wells (Fig 1b) (P. falciparum Dd2-2D4; Log[inhibitor] (M) -8.311): 8.90E+01 and 1.00E+02 and 9.90E+01
EC50 (P. falciparum Dd2-2D4; Plasmodium falciparum, DD2, SI Fig 16b, values on -log scale, read-out: ABS - Dd2-2D4 (converted)): 596 nM
dose-response signal (normalized), SI Fig 8 (PfcProRS; Log[inhibitor] (M) -6.301): 1.92E-01 and 4.91E-02 and 9.09E-02 and 1.28E-01 and 2.12E-01 and 1.32E-01
dose-response signal (normalized), SI Fig 8 (PfcProRS; Log[inhibitor] (M) -6.602): 2.13E-01 and 1.64E-01 and 1.25E-01 and 4.31E-02 and 9.86E-02 and 8.65E-02
dose-response signal (normalized), SI Fig 8 (PfcProRS; Log[inhibitor] (M) -6.904): 1.14E-01 and 8.81E-02 and 8.34E-02 and 1.41E-01 and 2.01E-01 and 1.23E-01
dose-response signal (normalized), SI Fig 8 (PfcProRS; Log[inhibitor] (M) -7.205): 2.07E-01 and 2.31E-01 and 1.85E-01 and 3.09E-01 and 3.02E-01 and 1.82E-01
dose-response signal (normalized), SI Fig 8 (PfcProRS; Log[inhibitor] (M) -7.506): 4.98E-01 and 4.91E-01 and 5.79E-01 and 3.60E-01 and 6.32E-01 and 4.92E-01
dose-response signal (normalized), SI Fig 8 (PfcProRS; Log[inhibitor] (M) -7.796): 7.43E-01 and 8.09E-01 and 7.32E-01 and 8.58E-01 and 7.28E-01 and 7.94E-01
dose-response signal (normalized), SI Fig 8 (PfcProRS; Log[inhibitor] (M) -8.097): 9.39E-01 and 7.78E-01 and 8.55E-01 and 1.05E+00 and 7.40E-01 and 9.07E-01
dose-response signal (normalized), SI Fig 8 (PfcProRS; Log[inhibitor] (M) -8.407): 8.45E-01 and 1.01E+00 and 1.04E+00 and 1.10E+00 and 1.00E+00 and 9.65E-01
dose-response signal (normalized), SI Fig 8 (PfcProRS; Log[inhibitor] (M) -8.708): 1.03E+00 and 1.01E+00 and 9.69E-01 and 1.00E+00 and 9.25E-01 and 9.85E-01
dose-response signal (normalized), SI Fig 8 (PfcProRS; Log[inhibitor] (M) -9.018): 1.01E+00 and 9.85E-01 and 9.47E-01 and 1.02E+00 (2×) and 9.53E-01
dose-response signal (normalized), SI Fig 8 (PfcProRS; Log[inhibitor] (M) -9.319): 1.08E+00 and 9.09E-01 and 9.54E-01 and 9.77E-01 and 1.04E+00 and 9.33E-01
dose-response signal (normalized), SI Fig 8 (PfcProRS; Log[inhibitor] (M) -9.620): 9.48E-01 and 9.58E-01 and 1.04E+00 and 1.08E+00 and 1.01E+00 and 9.21E-01
dose-response signal (normalized), SI Fig 8 (PfcProRS; Log[inhibitor] (M) -9.921): 1.02E+00 and 1.01E+00 and 9.29E-01 and 9.34E-01 and 1.07E+00 and 9.91E-01
dose-response signal (normalized), SI Fig 8 (PfcProRS; Log[inhibitor] (M) -10.097): 9.97E-01 and 1.11E+00 (2×) and 9.85E-01 and 1.06E+00 and 9.77E-01
dose-response signal (normalized), SI Fig 8 (PfcProRS; Log[inhibitor] (M) -10.585): 1.09E+00 and 8.10E-01 and 1.01E+00 and 1.14E+00 and 1.16E+00 and 1.07E+00
PfcProRS -- best Kd (PfcProRS; SI Fig 16a, values on -log scale): 8.144
parasite growth, replicate wells (Fig 1b) ([1]; Log[inhibitor] (M) -5.000): 6.00E+00 (2×) and 7.00E+00
parasite growth, replicate wells (Fig 1b) ([1]; Log[inhibitor] (M) -5.408): 7.00E+00 (2×) and 8.00E+00
parasite growth, replicate wells (Fig 1b) ([1]; Log[inhibitor] (M) -5.816): 1.20E+01 (2×) and 1.40E+01
parasite growth, replicate wells (Fig 1b) ([1]; Log[inhibitor] (M) -6.222): 6.90E+01 (2×) and 7.10E+01
parasite growth, replicate wells (Fig 1b) ([1]; Log[inhibitor] (M) -6.638): 8.90E+01 and 9.90E+01 and 9.60E+01
parasite growth, replicate wells (Fig 1b) ([1]; Log[inhibitor] (M) -7.046): 9.70E+01 and 1.01E+02 (2×)
parasite growth, replicate wells (Fig 1b) ([1]; Log[inhibitor] (M) -7.450): 8.80E+01 and 9.60E+01 and 1.00E+02
parasite growth, replicate wells (Fig 1b) ([1]; Log[inhibitor] (M) -7.854): 1.06E+02 and 1.07E+02 and 9.90E+01
parasite growth, replicate wells (Fig 1b) ([1]; Log[inhibitor] (M) -8.260): 1.03E+02 and 9.80E+01 and 1.01E+02
parasite growth, replicate wells (Fig 1b) ([1]; Log[inhibitor] (M) -8.699): 9.70E+01 (2×) and 9.90E+01
parasite growth, replicate wells (Fig 1b) ([1]; Log[inhibitor] (M) -9.000): 1.04E+02 and 1.02E+02 and 9.80E+01
parasite growth, replicate wells (Fig 1b) ([1]; Log[inhibitor] (M) -9.488): 9.60E+01 and 9.50E+01 and 9.40E+01
parasite growth, replicate wells (Fig 1b) ([2]; Log[inhibitor] (M) -5.000): 1.00E+00
parasite growth, replicate wells (Fig 1b) ([2]; Log[inhibitor] (M) -5.408): 2.00E+00
parasite growth, replicate wells (Fig 1b) ([2]; Log[inhibitor] (M) -5.816): 2.40E+01 (2×) and 2.50E+01
parasite growth, replicate wells (Fig 1b) ([2]; Log[inhibitor] (M) -6.222): 9.70E+01 and 1.00E+02 and 9.90E+01
parasite growth, replicate wells (Fig 1b) ([2]; Log[inhibitor] (M) -6.638): 1.00E+02 and 1.02E+02 and 1.04E+02
parasite growth, replicate wells (Fig 1b) ([2]; Log[inhibitor] (M) -7.046): 1.00E+02 and 9.10E+01 and 1.03E+02
parasite growth, replicate wells (Fig 1b) ([2]; Log[inhibitor] (M) -7.450): 9.40E+01 and 9.70E+01 and 9.80E+01
parasite growth, replicate wells (Fig 1b) ([2]; Log[inhibitor] (M) -7.854): 9.70E+01 (2×) and 1.00E+02
parasite growth, replicate wells (Fig 1b) ([2]; Log[inhibitor] (M) -8.260): 1.00E+02 and 9.20E+01 and 9.80E+01
parasite growth, replicate wells (Fig 1b) ([2]; Log[inhibitor] (M) -8.699): 9.70E+01 (2×) and 9.80E+01

Source: publication PMC9403976, “Elucidating the path to Plasmodium prolyl-tRNA synthetase inhibitors that overcome halofuginone resistance” (Nature Communications, 2022)
